Laboratory results: patent US11684606B2, “Methods of treating generalized pustular psoriasis with an antagonist of CCR6 or CXCR2” (CHEMOCENTRYX, INC., priority 2018, dated 2023)

Target: T1, mCCR9 (Mus musculus, UniProt Q9WUT7)
T1 construct: endogenous in cells; host or cells: mouse thymocytes (from the earlier reading's assay name)
T1 sequence (Q9WUT7 1-369): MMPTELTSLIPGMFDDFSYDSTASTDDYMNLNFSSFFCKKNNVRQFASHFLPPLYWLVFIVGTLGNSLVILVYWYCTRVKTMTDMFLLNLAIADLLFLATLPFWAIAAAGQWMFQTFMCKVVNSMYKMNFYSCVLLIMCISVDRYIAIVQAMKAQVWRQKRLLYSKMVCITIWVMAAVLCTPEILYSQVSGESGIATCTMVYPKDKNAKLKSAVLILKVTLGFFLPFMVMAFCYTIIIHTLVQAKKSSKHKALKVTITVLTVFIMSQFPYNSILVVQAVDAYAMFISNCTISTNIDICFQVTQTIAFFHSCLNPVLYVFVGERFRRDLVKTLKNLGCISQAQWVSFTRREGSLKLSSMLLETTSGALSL
Assay: Chemotaxis of mouse thymocytes to mCCL25
Type: cell-based
Details: in serum; unit inferred

IC50: > 10 µM
Compound: CCC(C)(C)[C@@H](Nc1c(Nc2c(F)ccc3c2C(=O)N[C@H]3C)c(=O)c1=O)c1ccc(C)o1 [Compound 1.136]
